Results: PubChem BioAssay (NCI)
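GI50 marks 50% less growth. Definition used: TGI = concentration required for complete inhibition of growth.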

Tests used:
Test in all cases: inhibition of tumour cell growth, NCI panel, 384-well format
UACC-62 melanoma = tested on: UACC-62 melanoma
NCI-H322M lung = tested on: NCI-H322M lung
PC-3 prostate = tested on: PC-3 prostate
SK-MEL-2 melanoma = tested on: SK-MEL-2 melanoma
SN12C renal = tested on: SN12C renal
SNB-75 CNS = tested on: SNB-75 CNS
OVCAR-3 ovarian = tested on: OVCAR-3 ovarian
OVCAR-4 ovarian = tested on: OVCAR-4 ovarian
NCI-H23 lung = tested on: NCI-H23 lung
U251 glioblastoma = tested on: U251 glioblastoma
K-562 leukemia = tested on: K-562 leukemia
UO-31 renal = tested on: UO-31 renal
MALME-3M melanoma = tested on: MALME-3M melanoma
M14 melanoma = tested on: M14 melanoma
BT-549 breast = tested on: BT-549 breast
SK-MEL-28 melanoma = tested on: SK-MEL-28 melanoma
NCI-H522 lung = tested on: NCI-H522 lung
HOP-92 NSCLC = tested on: HOP-92 NSCLC
NCI-H460 NSCLC = tested on: NCI-H460 NSCLC
DU-145 prostate = tested on: DU-145 prostate
MDA-MB-468 breast = tested on: MDA-MB-468 breast
OVCAR-5 ovarian = tested on: OVCAR-5 ovarian
SNB-19 CNS = tested on: SNB-19 CNS
CAKI-1 renal = tested on: CAKI-1 renal
ACHN renal = tested on: ACHN renal
SR leukemia = tested on: SR leukemia
MDA-MB-231 breast = tested on: MDA-MB-231 breast
MOLT-4 leukemia = tested on: MOLT-4 leukemia
TK-10 renal = tested on: TK-10 renal
786-0 renal = tested on: 786-0 renal
HL-60(TB) leukemia = tested on: HL-60(TB) leukemia
SF-268 CNS = tested on: SF-268 CNS
IGROV1 ovarian = tested on: IGROV1 ovarian
MDA-MB-435 melanoma = tested on: MDA-MB-435 melanoma
HCT-116 colon = tested on: HCT-116 colon
SK-OV-3 ovarian = tested on: SK-OV-3 ovarian
SW-620 colon = tested on: SW-620 colon
HT29 colon = tested on: HT29 colon
A549 NSCLC = tested on: A549 NSCLC
SF-539 CNS = tested on: SF-539 CNS
A498 renal = tested on: A498 renal
KM12 colon = tested on: KM12 colon
HS 578T breast = tested on: HS 578T breast

Which GI50 (UACC-62 melanoma) does the source give for `C=CC(=O)Nc1cc2c(Nc3ccc(OCc4ccccn4)c(Cl)c3)ncnc2cc1OCCN1CCOCC1` here?
Its GI50 is 1380 nM.

And the TGI (UACC-62 melanoma)?
Its TGI is 2680 nM.

And the GI50 (NCI-H322M lung)?
Its GI50 is 18.3 nM.

And the TGI (NCI-H322M lung)?
Its TGI is 1140 nM.

What about the GI50 (PC-3 prostate) of the same compound?
Its GI50 is 1650 nM.

And the TGI (PC-3 prostate)?
Its TGI is 3110 nM.

What about the GI50 (SK-MEL-2 melanoma) of the same compound?
Its GI50 is 1300 nM.

And the TGI (SK-MEL-2 melanoma)?
The TGI was 2580 nM.

And the GI50 (SN12C renal)?
The GI50 was 1100 nM.

What about the TGI (SN12C renal) of the same compound?
The TGI was 2730 nM.

What about the GI50 (SNB-75 CNS) of the same compound?
Its GI50 is 1390 nM.

And the TGI (SNB-75 CNS)?
Its TGI is 2920 nM.

And the GI50 (OVCAR-3 ovarian)?
Its GI50 is 282 nM.

And the TGI (OVCAR-3 ovarian)?
The TGI was 1880 nM.

What about the GI50 (OVCAR-4 ovarian) of the same compound?
The GI50 was 1130 nM.

And the TGI (OVCAR-4 ovarian)?
The TGI was 2500 nM.

And the GI50 (NCI-H23 lung)?
The GI50 was 1690 nM.

And the TGI (NCI-H23 lung)?
Its TGI is 4250 nM.

And the GI50 (U251 glioblastoma)?
The GI50 was 1520 nM.

And the TGI (U251 glioblastoma)?
Its TGI is 2930 nM.

What about the GI50 (K-562 leukemia) of the same compound?
Its GI50 is 1490 nM.

And the TGI (K-562 leukemia)?
The TGI was 2950 nM.

What about the GI50 (UO-31 renal) of the same compound?
Its GI50 is 1080 nM.

And the TGI (UO-31 renal)?
The TGI was 2330 nM.

And the GI50 (MALME-3M melanoma)?
The GI50 was 1700 nM.

And the TGI (MALME-3M melanoma)?
Its TGI is 3090 nM.

And the GI50 (M14 melanoma)?
Its GI50 is 1650 nM.

What about the TGI (M14 melanoma) of the same compound?
The TGI was 3020 nM.

And the GI50 (BT-549 breast)?
Its GI50 is 1160 nM.

What about the TGI (BT-549 breast) of the same compound?
Its TGI is 2380 nM.

What about the GI50 (SK-MEL-28 melanoma) of the same compound?
Its GI50 is 1550 nM.

And the TGI (SK-MEL-28 melanoma)?
Its TGI is 2910 nM.

And the GI50 (NCI-H522 lung)?
The GI50 was 131 nM.

And the TGI (NCI-H522 lung)?
Its TGI is 1430 nM.

What about the GI50 (HOP-92 NSCLC) of the same compound?
Its GI50 is 1370 nM.

What about the TGI (HOP-92 NSCLC) of the same compound?
The TGI was 2780 nM.

What about the GI50 (NCI-H460 NSCLC) of the same compound?
The GI50 was 1530 nM.

What about the TGI (NCI-H460 NSCLC) of the same compound?
The TGI was 3160 nM.

What about the GI50 (DU-145 prostate) of the same compound?
Its GI50 is 499 nM.

What about the TGI (DU-145 prostate) of the same compound?
The TGI was 2120 nM.

And the TGI (MDA-MB-468 breast)?
The TGI was 40.5 nM.

What about the GI50 (OVCAR-5 ovarian) of the same compound?
The GI50 was 3490 nM.

What about the TGI (OVCAR-5 ovarian) of the same compound?
The TGI was > 100000 nM.

And the GI50 (SNB-19 CNS)?
The GI50 was 5380 nM.

What about the TGI (SNB-19 CNS) of the same compound?
Its TGI is 18300 nM.

And the GI50 (CAKI-1 renal)?
Its GI50 is 1180 nM.

And the TGI (CAKI-1 renal)?
Its TGI is 2420 nM.

And the GI50 (ACHN renal)?
The GI50 was 98 nM.

And the TGI (ACHN renal)?
The TGI was 1690 nM.

What about the GI50 (SR leukemia) of the same compound?
Its GI50 is 1520 nM.

And the TGI (SR leukemia)?
Its TGI is 2890 nM.

What about the GI50 (MDA-MB-231 breast) of the same compound?
The GI50 was 1280 nM.

What about the TGI (MDA-MB-231 breast) of the same compound?
The TGI was 2910 nM.

And the GI50 (MOLT-4 leukemia)?
The GI50 was 1580 nM.

And the TGI (MOLT-4 leukemia)?
The TGI was 2960 nM.

And the GI50 (TK-10 renal)?
The GI50 was 30.5 nM.

And the TGI (TK-10 renal)?
The TGI was 1540 nM.

What about the GI50 ([…]-0 renal) of the same compound?
Its GI50 is 1350 nM.

And the TGI (786-0 renal)?
The TGI was 2670 nM.

And the GI50 (HL-60(TB) leukemia)?
The GI50 was 1530 nM.

And the TGI (HL-60(TB) leukemia)?
Its TGI is 2900 nM.

What about the GI50 (SF-268 CNS) of the same compound?
The GI50 was 1420 nM.

What about the TGI (SF-268 CNS) of the same compound?
Its TGI is 2810 nM.

And the GI50 (IGROV1 ovarian)?
The GI50 was 27 nM.

What about the TGI (IGROV1 ovarian) of the same compound?
Its TGI is 1080 nM.

What about the GI50 (MDA-MB-435 melanoma) of the same compound?
Its GI50 is 1540 nM.

What about the TGI (MDA-MB-435 melanoma) of the same compound?
Its TGI is 2960 nM.

And the GI50 (HCT-116 colon)?
Its GI50 is 1480 nM.

And the TGI (HCT-116 colon)?
The TGI was 2920 nM.

What about the GI50 (SK-OV-3 ovarian) of the same compound?
The GI50 was 53.7 nM.

What about the TGI (SK-OV-3 ovarian) of the same compound?
Its TGI is 2350 nM.

What about the GI50 (SW-620 colon) of the same compound?
Its GI50 is 1730 nM.

What about the TGI (SW-620 colon) of the same compound?
The TGI was 3160 nM.

And the GI50 (HT29 colon)?
Its GI50 is 1590 nM.

What about the TGI (HT29 colon) of the same compound?
Its TGI is 2990 nM.

What about the GI50 (A549 NSCLC) of the same compound?
Its GI50 is 3110 nM.

What about the GI50 (SF-539 CNS) of the same compound?
The GI50 was 1250 nM.

What about the TGI (SF-539 CNS) of the same compound?
The TGI was 2510 nM.

And the GI50 (A498 renal)?
Its GI50 is 744 nM.

What about the TGI (A498 renal) of the same compound?
Its TGI is 2200 nM.

And the GI50 (KM12 colon)?
The GI50 was 1750 nM.

And the TGI (KM12 colon)?
Its TGI is 3230 nM.

And the GI50 (HS 578T breast)?
The GI50 was 364 nM.

And the TGI (HS 578T breast)?
The TGI was 2080 nM.
